In US20220356174A1, “PYRIDIN-2-ONE COMPOUNDS USEFUL AS SMARCA2 ANTAGONISTS” (Epizyme, Inc., priority 2018, published 2022):
pIC50: −log10 of the molar value.

Biological target: T1, FL-SMARCA2 (full-length human SMARCA2 isoform 1) (Homo sapiens, UniProt P51531)
T1 construct: FLAG tag (YKDDDDK) (C); made in house; host or cells: Sf21 insect cells (baculovirus, pFastBacI)
Experiment: SMARCA2 ATPase activity assay (ADP-Glo, chicken mononucleosome substrate)
Type: biochemical
Details: Table 3a.1; SMARCA2 5 nM, ATP 250 uM, mononucleosome 10 nM
Excerpt: Molecular Biology: Full-length human SMARCA2 isoform 1 (P51531) transcript clone was amplified from a cDNA library incorporating an N-terminal HIS tag ([…]) fused directly to Ser2 of SMARCA2 and a C-FLAG tag (YKDDDDK) fused directly to Glu1590 of SMARCA2. The amplified gene was subcloned into pFastBacI (Life Technologies).
Protein Expression: Recombinant baculovirus were generated and protein over-expression was accomplished by infecting exponentially growing Sf21 insect cell culture at 1.24×10^6 cell/ml with an MOI of 0.1. Infections were carried out for 76 hours, harvested by centrifugation, and stored at −80° C. for purification.
Expressed full-length SMARCA2 was purified from cell paste by FLAG affinity chromatography followed by anion exchange chromatography. The protein was dialyzed into a storage buffer containing 25 mM HEPES, 300 mM KCl, 10% Glycerol, pH 7.9, 1 mM TCEP and 0.01% Tween-20. The purity of the protein was measured as 74% using micro-capillary based gel electrophoresis.

T1 sequence (P51531 with tags, fused parts or gaps): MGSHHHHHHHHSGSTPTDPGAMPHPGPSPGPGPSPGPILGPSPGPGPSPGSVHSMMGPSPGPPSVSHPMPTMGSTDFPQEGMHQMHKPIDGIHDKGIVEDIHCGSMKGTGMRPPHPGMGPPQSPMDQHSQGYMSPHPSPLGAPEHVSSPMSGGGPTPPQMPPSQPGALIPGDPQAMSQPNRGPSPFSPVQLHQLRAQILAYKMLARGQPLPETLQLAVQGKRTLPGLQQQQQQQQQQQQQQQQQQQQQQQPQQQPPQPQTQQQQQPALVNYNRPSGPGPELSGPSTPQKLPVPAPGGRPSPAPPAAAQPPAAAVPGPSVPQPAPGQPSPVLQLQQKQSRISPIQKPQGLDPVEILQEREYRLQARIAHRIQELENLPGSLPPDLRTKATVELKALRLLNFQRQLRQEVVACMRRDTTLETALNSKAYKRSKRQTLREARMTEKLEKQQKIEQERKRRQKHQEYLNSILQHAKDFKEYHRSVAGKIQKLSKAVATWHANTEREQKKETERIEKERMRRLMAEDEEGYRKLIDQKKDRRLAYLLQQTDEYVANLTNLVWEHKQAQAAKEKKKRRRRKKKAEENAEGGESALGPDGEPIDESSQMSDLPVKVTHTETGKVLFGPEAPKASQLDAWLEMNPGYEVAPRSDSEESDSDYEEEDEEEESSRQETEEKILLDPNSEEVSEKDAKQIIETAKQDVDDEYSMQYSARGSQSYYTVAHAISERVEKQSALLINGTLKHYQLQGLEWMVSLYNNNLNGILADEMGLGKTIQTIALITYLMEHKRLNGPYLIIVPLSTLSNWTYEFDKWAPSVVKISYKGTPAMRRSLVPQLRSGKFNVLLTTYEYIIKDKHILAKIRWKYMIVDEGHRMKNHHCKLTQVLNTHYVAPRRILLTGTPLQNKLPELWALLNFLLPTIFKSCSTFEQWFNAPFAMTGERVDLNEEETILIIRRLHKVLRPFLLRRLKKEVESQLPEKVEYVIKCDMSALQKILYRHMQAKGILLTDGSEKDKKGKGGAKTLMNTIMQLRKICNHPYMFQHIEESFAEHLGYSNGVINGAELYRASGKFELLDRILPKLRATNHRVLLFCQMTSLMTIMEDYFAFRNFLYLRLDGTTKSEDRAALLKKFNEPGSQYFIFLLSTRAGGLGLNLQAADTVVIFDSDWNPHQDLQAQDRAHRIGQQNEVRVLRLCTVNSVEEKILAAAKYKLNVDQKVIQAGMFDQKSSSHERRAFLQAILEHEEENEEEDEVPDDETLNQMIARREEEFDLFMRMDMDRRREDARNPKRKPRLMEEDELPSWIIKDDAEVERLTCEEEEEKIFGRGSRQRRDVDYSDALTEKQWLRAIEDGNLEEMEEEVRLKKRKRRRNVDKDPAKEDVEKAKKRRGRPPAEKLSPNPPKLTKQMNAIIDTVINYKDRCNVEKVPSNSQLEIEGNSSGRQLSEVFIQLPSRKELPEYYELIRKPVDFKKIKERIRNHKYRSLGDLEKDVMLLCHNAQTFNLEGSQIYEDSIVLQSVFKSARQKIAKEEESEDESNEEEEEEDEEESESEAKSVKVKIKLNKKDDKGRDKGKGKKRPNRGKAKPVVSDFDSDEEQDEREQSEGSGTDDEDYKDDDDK

SMILES | pIC50
CCn1cc(NC(=O)c2ccc(Cl)c(Cl)n2)ccc1=O [Compound 33a] | < 4.30
CCn1cc(NC(=O)c2ccccn2)ccc1=O [Compound 30a] | < 4.30
CCn1cc(NC(=O)c2ccc(C(F)(F)F)cn2)ccc1=O [Compound 58a] | < 4.30
COC1(C(=O)Nc2ccc(=O)n(Cc3ccccc3Cl)c2)CCNCC1 [Compound 4a] | < 4.30
CCn1cc(NC(=O)c2cccc(C)n2)ccc1=O [Compound 28a] | < 4.30
CN1C(=O)CCC1C(=O)Nc1cc(F)c(=O)n(CCF)c1 (centres unmarked) [Compound 50a] | < 4.30
COc1ccc2nc(C(=O)Nc3cc(F)c(=O)n(CCF)c3)sc2c1 [Compound 62a] | 4.36
O=C(Nc1cc(F)c(=O)n(CCF)c1)N1CCn2ccnc2C1 [Compound 53a] | < 4.30
CCn1cc(NC(=O)c2cc3c(n2C)CCC3)ccc1=O [Compound 34a] | < 4.30

Same assay, conditions: Table 3b.1; SMARCA2 5 nM, ATP 250 uM, mononucleosome 10 nM

SMILES | pIC50
CCn1cc(NC(=O)c2ccc(Cl)cc2)ccc1=O [Compound 7b] | < 4.30
CCn1cc(NC(=O)c2cccc(Cl)c2)ccc1=O [Compound 6b] | < 4.30
CCn1cc(NC(=O)C2CCCC2)ccc1=O [Compound 11b] | < 4.30

Same assay, conditions: Table 3c.1; ATPase assay, enzyme 5 nM, ATP 250 uM, chicken mononucleosome 10 nM, 30 min preincubation

SMILES | pIC50
O=C(Nc1cc(F)c(=O)n(CC(F)F)c1)c1cc(C#CC2COC2)c(C2CC2)s1 [Compound 94c] | < 4.30
Cn1nccc1-c1cc(NC(=O)c2cc(Cl)c(C(F)(F)F)s2)cn(CC(F)F)c1=O [Compound 13c] | < 4.30
O=C(Nc1cc(F)c(=O)n(CC(F)F)c1)c1cc(C2CC(c3ccncc3)C2)c(Cl)s1 (centres unmarked) [Compound 152c] | 5.33
O=C(Nc1cc(-c2ncco2)c(=O)n(CC(F)F)c1)c1cc(Cl)c(C(F)(F)F)s1 [Compound 102c] | < 4.30

Same assay, conditions: Table 3.1; ATPase assay, enzyme 5 nM, ATP 250 uM, chicken mononucleosome 10 nM, 30 min preincubation

SMILES | pIC50
NS(=O)(=O)c1sc(C(=O)Nc2cc(F)c(=O)n(CCF)c2)cc1Cl [Compound 309] | 4.53
N#Cc1sc(C(=O)Nc2cc(C#N)c(=O)n(CCF)c2)cc1Cl [Compound 210] | 6.68
CCn1cc(NC(=O)c2cc(Cl)c(Cl)n2C(C)C)ccc1=O [Compound 61] | < 4.30
Cn1c(C(=O)Nc2cc(F)c(=O)n(CC(F)(F)F)c2)cc(Cl)c1C#N [Compound 160] | 6.65
CCn1cc(NC(=O)c2ncc(Cl)s2)ccc1=O [Compound 56] | < 4.30
O=C(Nc1cc(F)c(=O)n(CCn2ccnc2)c1)c1cc(Cl)c(Cl)s1 [Compound 274] | < 4.30
CCn1cc(NC(=O)c2ccc(C)n2C(F)F)ccc1=O [Compound 52] | < 4.30
CCn1cc(NC(=O)c2cn(C)c(Cl)n2)ccc1=O [Compound 108] | < 4.30
CNC(=O)c1cc(C(=O)Nc2cc(F)c(=O)n(CCF)c2)sc1C(F)(F)F [Compound 305] | < 4.30
CCn1cc(C(=O)Nc2cc(Cl)c(Cl)s2)ccc1=O [Compound 79] | < 4.30
N#Cc1[nH]c(C(=O)Nc2ccc(=O)n(CC(F)F)c2)cc1Cl [Compound 294] | 6.93
CCn1cc(NC(=O)c2cc(Cl)c(C#N)n2C)cc(Cl)c1=O [Compound 161] | 6.26
O=C(Nc1cc(Cl)c(=O)n(CC(F)(F)F)c1)c1cnc(Cl)s1 [Compound 104] | 6.72
CCn1cc(NC(=O)c2c[nH]c(C)c2)ccc1=O [Compound 55] | < 4.30
COCCn1cc(NC(=O)c2cnn(-c3ccccc3C)c2C)ccc1=O [Compound 9] | < 4.30
CCn1cc(NC(=O)c2cc(Cl)c(Cl)s2)cc(NCCN(C)C)c1=O [Compound 114] | 5.03
CCn1cc(NC(=O)c2cc(Cl)c(Cl)n2Cc2ccccc2)ccc1=O [Compound 57] | < 4.30
Cn1c(C(=O)Nc2ccc(=O)[nH]c2)cc(Cl)c1Cl [Compound 37] | < 4.30
O=C(Nc1cc(F)c(=O)n(CC(F)F)c1)c1cc(Cl)c(C(F)F)s1 [Compound 296] | 7.03
Cc1cc(NC(=O)c2cnn(-c3cccc(Cl)c3)c2C)c[nH]c1=O [Compound 4] | < 4.30
CCCn1c(C(=O)Nc2ccc(=O)n(CC)c2)cc(Cl)c1Cl [Compound 59] | < 4.30
Cn1nc(Cl)cc1C(=O)Nc1cc(F)c(=O)n(CCF)c1 [Compound 233] | 5.12
CNC(=O)c1cc(C(=O)Nc2cc(F)c(=O)n(CCF)c2)sc1Cl [Compound 291] | < 4.30
CCc1sc(C(=O)Nc2ccc(=O)n(CC)c2)cc1Cl [Compound 95] | < 4.30
CCn1cc(NC(=O)c2cnc(Cl)s2)cc(F)c1=O [Compound 130] | 6.83
CCn1cc(NC(=O)c2cc(Cl)n[nH]2)ccc1=O [Compound 94] | 5.50
CN(C)C(=O)c1ccc(C(=O)Nc2cc(F)c(=O)n(CCF)c2)s1 [Compound 306] | < 4.30

Same assay, conditions: Table 3d.1; ATPase assay, enzyme 5 nM, ATP 250 uM, chicken mononucleosome 10 nM, 30 min preincubation; read-out: FL-SMARCA2 IC>50

SMILES | pIC50
COc1cc(Cl)c(Cl)cc1C(=O)Nc1cc(F)c(=O)n(CC(F)F)c1 [Compound 40d] | < 4.30
COc1c(C(=O)Nc2cc(F)c(=O)n(CC(F)F)c2)sc(Cl)c1Cl [Compound 46d] | < 4.30
COc1ncc(F)cc1C(=O)Nc1cc(F)c(=O)n(CC(F)F)c1 [Compound 41d] | < 4.30

Biological target: FL-SMARCA4 (Homo sapiens, UniProt P51532)
Sequence (P51532 whole entry): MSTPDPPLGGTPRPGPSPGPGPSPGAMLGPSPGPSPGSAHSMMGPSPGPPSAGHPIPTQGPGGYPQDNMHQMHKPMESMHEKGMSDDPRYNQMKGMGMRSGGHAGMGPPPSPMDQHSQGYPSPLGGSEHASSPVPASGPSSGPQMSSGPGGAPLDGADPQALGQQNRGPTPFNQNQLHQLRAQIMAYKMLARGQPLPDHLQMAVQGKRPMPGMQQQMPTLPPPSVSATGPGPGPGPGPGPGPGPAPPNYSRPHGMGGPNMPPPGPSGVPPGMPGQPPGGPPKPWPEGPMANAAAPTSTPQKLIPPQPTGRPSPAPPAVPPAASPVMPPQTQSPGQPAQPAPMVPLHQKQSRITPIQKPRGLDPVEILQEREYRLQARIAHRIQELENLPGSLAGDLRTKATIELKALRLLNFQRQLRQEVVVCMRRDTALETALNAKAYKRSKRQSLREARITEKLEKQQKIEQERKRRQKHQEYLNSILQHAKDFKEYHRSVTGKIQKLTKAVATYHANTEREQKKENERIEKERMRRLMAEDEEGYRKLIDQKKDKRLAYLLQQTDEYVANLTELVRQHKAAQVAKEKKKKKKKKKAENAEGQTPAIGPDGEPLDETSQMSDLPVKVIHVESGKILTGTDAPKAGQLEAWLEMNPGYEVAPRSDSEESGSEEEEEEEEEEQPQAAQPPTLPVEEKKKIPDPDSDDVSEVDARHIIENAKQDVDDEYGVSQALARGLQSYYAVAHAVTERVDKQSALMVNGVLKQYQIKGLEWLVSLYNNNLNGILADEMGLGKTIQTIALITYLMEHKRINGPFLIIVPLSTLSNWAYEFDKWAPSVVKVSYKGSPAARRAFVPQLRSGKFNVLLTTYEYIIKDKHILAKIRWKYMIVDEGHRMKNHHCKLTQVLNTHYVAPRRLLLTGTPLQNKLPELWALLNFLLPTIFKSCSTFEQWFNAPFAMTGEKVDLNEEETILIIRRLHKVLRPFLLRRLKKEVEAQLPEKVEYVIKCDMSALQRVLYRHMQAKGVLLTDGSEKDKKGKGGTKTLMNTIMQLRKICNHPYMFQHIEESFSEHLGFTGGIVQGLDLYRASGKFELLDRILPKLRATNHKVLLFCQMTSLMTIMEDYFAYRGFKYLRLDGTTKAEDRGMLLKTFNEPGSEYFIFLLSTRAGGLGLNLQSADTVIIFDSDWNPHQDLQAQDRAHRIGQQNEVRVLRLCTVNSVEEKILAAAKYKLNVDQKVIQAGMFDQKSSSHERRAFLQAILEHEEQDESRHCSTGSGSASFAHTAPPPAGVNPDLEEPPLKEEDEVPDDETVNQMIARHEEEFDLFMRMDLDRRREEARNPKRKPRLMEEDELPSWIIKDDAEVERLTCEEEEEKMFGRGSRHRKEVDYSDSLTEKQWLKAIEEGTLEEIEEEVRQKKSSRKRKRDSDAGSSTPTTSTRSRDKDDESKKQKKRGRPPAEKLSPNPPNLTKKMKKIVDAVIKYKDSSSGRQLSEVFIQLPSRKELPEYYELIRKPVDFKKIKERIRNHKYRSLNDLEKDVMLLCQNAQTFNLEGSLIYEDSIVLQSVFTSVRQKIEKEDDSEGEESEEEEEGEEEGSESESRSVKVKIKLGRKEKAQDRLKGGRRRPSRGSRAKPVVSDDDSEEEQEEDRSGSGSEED
Experiment: SMARCA4 ATPase activity assay (ADP-Glo, chicken mononucleosome substrate)
Details: FL-SMARCA4 IC50

SMILES | pIC50
COc1cc(Cl)c(Cl)cc1C(=O)Nc1cc(F)c(=O)n(CC(F)F)c1 [Compound 40d] | < 4.30
COc1c(C(=O)Nc2cc(F)c(=O)n(CC(F)F)c2)sc(Cl)c1Cl [Compound 46d] | < 4.30
COc1ncc(F)cc1C(=O)Nc1cc(F)c(=O)n(CC(F)F)c1 [Compound 41d] | < 4.30

Same assay, conditions: FL-SMARCA4 IC50, Table 3a.2; SMARCA4 5 nM, ATP 250 uM, mononucleosome 10 nM

SMILES | pIC50
CCn1cc(NC(=O)c2ccc(Cl)c(Cl)n2)ccc1=O [Compound 33a] | < 4.30
CCn1cc(NC(=O)c2ccccn2)ccc1=O [Compound 30a] | < 4.30
CCn1cc(NC(=O)c2ccc(C(F)(F)F)cn2)ccc1=O [Compound 58a] | < 4.30
COC1(C(=O)Nc2ccc(=O)n(Cc3ccccc3Cl)c2)CCNCC1 [Compound 4a] | < 4.30
CCn1cc(NC(=O)c2cccc(C)n2)ccc1=O [Compound 28a] | < 4.30
CN1C(=O)CCC1C(=O)Nc1cc(F)c(=O)n(CCF)c1 (centres unmarked) [Compound 50a] | < 4.30
COc1ccc2nc(C(=O)Nc3cc(F)c(=O)n(CCF)c3)sc2c1 [Compound 62a] | 4.32
O=C(Nc1cc(F)c(=O)n(CCF)c1)N1CCn2ccnc2C1 [Compound 53a] | < 4.30
CCn1cc(NC(=O)c2cc3c(n2C)CCC3)ccc1=O [Compound 34a] | < 4.30

Same assay, conditions: FL-SMARCA4 IC50, Table 3b.2; SMARCA4 5 nM, ATP 250 uM, mononucleosome 10 nM

SMILES | pIC50
CCn1cc(NC(=O)c2ccc(Cl)cc2)ccc1=O [Compound 7b] | < 4.30
CCn1cc(NC(=O)c2cccc(Cl)c2)ccc1=O [Compound 6b] | < 4.30
CCn1cc(NC(=O)C2CCCC2)ccc1=O [Compound 11b] | < 4.30

Same assay, conditions: FL-SMARCA4 IC50, Table 3.2; ATPase assay, enzyme 5 nM, ATP 250 uM, chicken mononucleosome 10 nM, 30 min preincubation

SMILES | pIC50
NS(=O)(=O)c1sc(C(=O)Nc2cc(F)c(=O)n(CCF)c2)cc1Cl [Compound 309] | < 4.30
N#Cc1sc(C(=O)Nc2cc(C#N)c(=O)n(CCF)c2)cc1Cl [Compound 210] | 6.16
CCn1cc(NC(=O)c2cc(Cl)c(Cl)n2C(C)C)ccc1=O [Compound 61] | < 4.30
Cn1c(C(=O)Nc2cc(F)c(=O)n(CC(F)(F)F)c2)cc(Cl)c1C#N [Compound 160] | 6.06
CCn1cc(NC(=O)c2ncc(Cl)s2)ccc1=O [Compound 56] | < 4.30
O=C(Nc1cc(F)c(=O)n(CCn2ccnc2)c1)c1cc(Cl)c(Cl)s1 [Compound 274] | < 4.30
CCn1cc(NC(=O)c2ccc(C)n2C(F)F)ccc1=O [Compound 52] | < 4.30
CCn1cc(NC(=O)c2cn(C)c(Cl)n2)ccc1=O [Compound 108] | < 4.30
CNC(=O)c1cc(C(=O)Nc2cc(F)c(=O)n(CCF)c2)sc1C(F)(F)F [Compound 305] | < 4.30
CCn1cc(C(=O)Nc2cc(Cl)c(Cl)s2)ccc1=O [Compound 79] | < 4.30
N#Cc1[nH]c(C(=O)Nc2ccc(=O)n(CC(F)F)c2)cc1Cl [Compound 294] | 6.41
CCn1cc(NC(=O)c2cc(Cl)c(C#N)n2C)cc(Cl)c1=O [Compound 161] | 5.39
O=C(Nc1cc(Cl)c(=O)n(CC(F)(F)F)c1)c1cnc(Cl)s1 [Compound 104] | 6.64
CCn1cc(NC(=O)c2c[nH]c(C)c2)ccc1=O [Compound 55] | < 4.30
COCCn1cc(NC(=O)c2cnn(-c3ccccc3C)c2C)ccc1=O [Compound 9] | < 4.30
CCn1cc(NC(=O)c2cc(Cl)c(Cl)s2)cc(NCCN(C)C)c1=O [Compound 114] | 4.84
CCn1cc(NC(=O)c2cc(Cl)c(Cl)n2Cc2ccccc2)ccc1=O [Compound 57] | < 4.30
Cn1c(C(=O)Nc2ccc(=O)[nH]c2)cc(Cl)c1Cl [Compound 37] | < 4.30
O=C(Nc1cc(F)c(=O)n(CC(F)F)c1)c1cc(Cl)c(C(F)F)s1 [Compound 296] | 6.28
Cc1cc(NC(=O)c2cnn(-c3cccc(Cl)c3)c2C)c[nH]c1=O [Compound 4] | < 4.30
CCCn1c(C(=O)Nc2ccc(=O)n(CC)c2)cc(Cl)c1Cl [Compound 59] | < 4.30
Cn1nc(Cl)cc1C(=O)Nc1cc(F)c(=O)n(CCF)c1 [Compound 233] | 4.44
CNC(=O)c1cc(C(=O)Nc2cc(F)c(=O)n(CCF)c2)sc1Cl [Compound 291] | < 4.30
CCc1sc(C(=O)Nc2ccc(=O)n(CC)c2)cc1Cl [Compound 95] | < 4.30
CCn1cc(NC(=O)c2cnc(Cl)s2)cc(F)c1=O [Compound 130] | 6.35
CCn1cc(NC(=O)c2cc(Cl)n[nH]2)ccc1=O [Compound 94] | 4.94
CN(C)C(=O)c1ccc(C(=O)Nc2cc(F)c(=O)n(CCF)c2)s1 [Compound 306] | < 4.30

Same assay, conditions: FL-SMARCA4 IC>50, Table 3c.2; ATPase assay, enzyme 5 nM, ATP 250 uM, chicken mononucleosome 10 nM, 30 min preincubation

SMILES | pIC50
O=C(Nc1cc(F)c(=O)n(CC(F)F)c1)c1cc(C#CC2COC2)c(C2CC2)s1 [Compound 94c] | < 4.30
Cn1nccc1-c1cc(NC(=O)c2cc(Cl)c(C(F)(F)F)s2)cn(CC(F)F)c1=O [Compound 13c] | < 4.30
O=C(Nc1cc(F)c(=O)n(CC(F)F)c1)c1cc(C2CC(c3ccncc3)C2)c(Cl)s1 (centres unmarked) [Compound 152c] | 4.43
O=C(Nc1cc(-c2ncco2)c(=O)n(CC(F)F)c1)c1cc(Cl)c(C(F)(F)F)s1 [Compound 102c] | < 4.30
